Laboratory results as given in paper PMC12579162, “Synthesized Depside Molecules Suppress the Progression of Colorectal Cancer by Binding VDAC1/PHB/MMP9 Being at the Crossroads of Stemness, Motility, Apoptosis, and Metabolism” (MedComm, 2025).

Assays:
[1] = test system: CaCo2, DLD1, HT29, HCT116, and SW620 cells; assay: Cell cycle analysis by flow cytometry; assay type: cell-based, human; settings: 10 µM, 48 h
Experimental: Cells were cultured in a six‐well plate at the density of 2 × 10^5 cells/well until adherence. Cells were treated with DMSO or compound for 48 h. Apoptosis or cell cycle experiments were then performed. For apoptosis analysis, cells were harvested and washed with PBS, resuspended in 100 µL of 1× binding buffer followed by staining with 4 µL of Annexin V–FITC (BD, Biosciences, San Jose, CA, USA), and 8 µL of 50 µg/mL propidium iodide (PI; BD Biosciences, San Jose, CA, USA) for 30 min in the dark. For cell cycle analysis, cells were washed with FACS washing buffer, incubated with trypsin solution, followed by RNase A for 10 min at room temperature. Cells were centrifuged and pellets were collected and stained with 100 µL of 4 mg/mL PI (Sigma–Aldrich) for 2 h in the dark at 4°C. Cells were detected by flow cytometry on a CytoFLEX instrument (Beckman Coulter Life Sciences, Indianapolis, IN, USA).

DLD1 cells = assay: MTT cell viability, DLD1; assay type: cell-based; settings: Homo sapiens, DLD-1; 48 h, MTT assay
Experimental: (§1) Cells (3 × 10^3 cells/well) were seeded on a 96‐well plate, grown overnight, and then treated with compounds at indicated concentrations for 48 h. After incubation with MTT for 4 h at 37°C, cells were lysed with 150 µL of DMSO (Sigma–Aldrich, St. Louis, USA). Absorbance was measured at 570 nm on a microplate reader with the Gen5 software (v.2.03.1; BioTek, Winooski, VT, USA).

[2] = test system: CSC221, DLD1, CaCo2, HT29, HCT116, and SW620 cells; assay: Seahorse XF Cell Mito Stress Test; assay type: cell-based, human; settings: 5 µM, 48 h
Experimental: Seahorse XF96 extracellular flux analyzer (Agilent, Santa Clara, CA, USA) was used for glycolytic rate and cell mito stress test assays. Cells were seeded at 1 × 10^4 cells/well, incubated overnight in culture medium (2% FBS), and then treated with DMSO or compound for 48 h. The plated cells were twice washed and loaded (180 µL) with assay media enhanced with glutamine, sodium pyruvate, and glucose on the day of analysis. Before analysis, the cells were incubated for 1 h at 37°C in a non‐CO2 incubator. Then, cell mito stress, mito tox, or glycolytic rate assay was tested. Agilent Seahorse XF Mito Stress Test Kit was utilized in accordance with Agilent Seahorse's standard methodology. This test examines the OCR of cells directly, which provides important information on mitochondrial function. First, 1 µM oligomycin (inhibits ATP synthase) was injected. The second injection was FCCP (1 µM), an uncoupling agent that compresses the proton gradient and disturbs the mitochondrial membrane potential. Last injection with 0.5 µM Rotenone (Rot; a complex I inhibitor) + antimycin A (AA; a complex III inhibitor) was loaded for OCR analysis. Agilent Seahorse XF Glycolytic Rate Assay was utilized in accordance with Agilent Seahorse's standard methodology. […] The results were analyzed using the Wave software (Agilent).

[3] = test system: MMP9 promoter in HEK293T cells; assay: MMP9 promoter reporter assay; assay type: cell-based, human; settings: 2.5 and 5 µM, 24 h
Experimental: HEK293T was plated in a 24-well plate, left to attach, and then transfected with 100 ng of AP-1, STAT, Gli, CSL, TOPFLASH (with 100 ng β-catenin), NF-kB, Hes-1 and MMP9 reporter plasmids with 2 ng of Renilla-luc (pRL-TK) plasmid. MMP9 reporter assays were tested by stimulating Gli1-Flag, Gli2-Flag, ΔEN1-Myc, and MYC-flag plasmids. Transfections were performed using the X-treme GENE 9 DNA transfection reagent (Roche, Werk Penzberg, Germany). After 24 hours transfection, cells were treated with compounds or DMSO and incubated for 24 h at 37 °C under 5% CO2. The Dual-Luciferase reporter assay system (Promega, Madison, WI, USA) was used.

NIH3T3 cells = assay: MTT cell viability, NIH3T3; assay type: cell-based; settings: Mus musculus, 48 h, MTT assay
Experimental: as §1

MCF10A cells = assay: Spheroid formation assay, MCF10A; assay type: cell-based, human; settings: noncancerous MCF10A, 10–14 days
Experimental: Monolayer cells were separated into single‐cell suspensions at around 70% confluence using a solution of trypsin. After that, the cells were added to N2‐supplemented DMEM/F12 that contained human basal fibroblast growth factor and human recombinant epidermal growth factor. Cells seeded at a density of 5 × 10^3 cells/well in ultra‐low attachment 24‐well plates (Corning Inc., Corning, NY, USA). After 10–14 days of culture, spheres were quantitated by inverted phase contrast microscopy. The relative sphere formation ability was calculated through the IMT iSolution software (IMT iSolution Inc., Northampton, NJ, USA) measuring the pixel intensity of the sphere area randomly in each plate.

CT26–iRFP cells = assay: CT26–iRFP derived tumor growth model; assay type: in vivo, BALB/C mice; settings: 5, 10, or 20 mg/kg intraperitoneally every other day
Experimental: The antitumor efficacy of VDAC1/PHB/MMP‐binding compound was evaluated using a xenograft model. Six‐week‐old male BALB/C mice were obtained from OrientBio. 1 × 10⁶ CT26 cells were subcutaneously implanted to each mouse. After 1 week inoculation, mice were treated with intraperitoneal injections of either vehicle (DMSO/PBS) or SB4 at a dose of 5, 10 and 20 mg/kg, administered every other day. Tumor volumes and body weight was measured every 2 days. Bioimaging of near‐infrared fluorescence was obtained using a FOBI system (Cellgentek, Osong, Korea) for three time point. After euthanizing the mice, tumor tissues were successfully collected, and the tumor weight was measured for each sample. According to the Guiding Principles in the Care and Use of Animals (DHEW publication, NIH 80–23), the in vivo experiments were performed with the approval of the Sunchon National University Research Institutional Animal Care and Use Committee (SCNU IACUC‐2024‐17).

SMILES | cell-cycle distribution [1] | IC50 (DLD1 cells) | oxygen consumption rate (OCR) [2] | MMP9 promoter activity [3] | IC50 (NIH3T3 cells) | spheroid formation (MCF10A cells) | mouse body weight (CT26–iRFP cells) | tumor volume and weight (CT26–iRFP cells; versus control)
COCCCOc1c(C)c(OC(=O)c2c(C)cc(OC)c(C)c2OC)cc(C)c1C(=O)OC [SB5, 4-(Methoxycarbonyl)-3-(3-methoxypropoxy)-2,5-dimethylphenyl 2,4-dimethoxy-3,6-dimethylbenzoate] | induced Sub G1 and G2/M populations while G1 population decreased | 57.8 µM | dramatically suppresses the oxygen consumption rate (OCR) | downregulated | 112 µM | did not change the inhibition or induction of spheroid formation in a statistically significant way |  | 
COCCOc1c(C)c(OC(=O)c2c(C)cc(OC)c(C)c2OC)cc(C)c1C(=O)OC [SB4, 4-(Methoxycarbonyl)-3-(2-methoxyethoxy)-2,5-dimethylphenyl 2,4-dimethoxy-3,6-dimethylbenzoate] | induced Sub G1 and G2/M populations while G1 population decreased | 4.08 µM | dramatically suppresses the oxygen consumption rate (OCR) | downregulated | 121 µM | did not change the inhibition or induction of spheroid formation in a statistically significant way | did not influence mouse body weight | significantly reduced both tumor volume and weight in a dose‐dependent manner
